Experimental data: patent US10900089B2, “Methods for predicting drug responsiveness in cancer patients” (Oncology Venture ApS, priority 2017, dated 2021)

Tests used:
[1] = system: breast cancer; assay: Clinical trial of 137 breast cancer patients treated with epirubicin (progression free survival, DRP validation); type: in vivo, human
Text: The biomarkers of sensitivity and resistance identified in Example 2 and shown in Tables 3 and 4 have been validated in a clinical trial of 137 breast cancer patients treated with epirubicin. Patients were examined every 9 to 12 weeks by CT scan and clinical evaluation. After patient informed consent, mRNA was isolated from formalin fixed paraffin embedded tumor tissue from diagnostic biopsies and analyzed using Affymetrix arrays. Blinded predictions of epirubicin efficacy were compared to clinical data collected retrospectively from patient medical records. Statistical analysis was performed using Cox proportional hazards model adjusted for treatment line. The primary endpoint was progression free survival (PFS). Median time to progression was 9.3 months (95% CI: 7.2-13.2). Of the 137 patients, four received epirubicin more than once.
The estimated hazard ratio was 0.56 (90% CI: 0.35-0.89) comparing two patients with DRP score differing by 50 percentage points. The estimated median time to progression for a patient with a DRP value of 25% was 7 months versus 13 months for a patient with a DRP value of 75%. No interaction with previous adjuvant chemotherapy was observed (p=0.98).

[2] = system: NCI60 cancer cell lines; assay: NCI60 growth assay: growth inhibition (GI50) profiles of therapeutic agents and their similarity; type: cell-based, human
Procedure: The human tumor cell lines of the cancer screening panel may be grown in RPMI 1640 medium containing 5% fetal bovine serum and 2 mM L-glutamine. Cells may be inoculated into 96 well microtiter plates in 100 μL at plating densities ranging from 5,000 to 40,000 cells/well depending on the doubling time of individual cell lines. After cell inoculation, the microtiter plates may be incubated at 37° C., 5% CO2, 95% air and 100% relative humidity for 24 hours prior to addition of experimental agent (e.g., an anthracycline, such as doxorubicin, epirubicin, daunorubicin, or idarubicin, or an anthracycline-containing liposome, such as a doxorubicin-containing liposome (e.g., 2B3-101)). […]
Following agent addition (e.g., an anthracycline, such as doxorubicin, epirubicin, daunorubicin, or idarubicin, or an anthracycline-containing liposome, such as a doxorubicin-containing liposome (e.g., 2B3-101)), the plates may be incubated for an additional 48 h at 37° C., 5% CO2, 95% air, and 100% relative humidity. […] Bound stain may be subsequently solubilized with 10 mM trizma base, and the absorbance may be read on an automated plate reader at a wavelength of 515 nm. […] Percentage growth inhibition may be calculated as: [(Ti−Tz)/(C−Tz)]×100 for concentrations for which Ti>/=Tz [(Ti−Tz)/Tz]×100 for concentrations for which Ti<Tz […]

Structure (SMILES): COc1cccc2c1C(=O)c1c(O)c3c(c(O)c1C2=O)C[C@@](O)(C(=O)CO)C[C@@H]3O[C@H]1C[C@H](N)[C@@H](O)[C@H](C)O1 [epirubicin]
- Median time to progression ([1]; 137 breast cancer patients treated with epirubicin): 9.3 months
- estimated median time to progression ([1]; patient with a DRP value of 25%): 7 months
- estimated median time to progression ([1]; patient with a DRP value of 75%): 13 months
- anti-tumor activity compared with doxorubicin [2]: nearly identical to that of doxorubicin

Structure (SMILES): CC(=O)[C@]1(O)Cc2c(O)c3c(c(O)c2[C@@H](O[C@H]2C[C@H](N)[C@H](O)[C@H](C)O2)C1)C(=O)c1ccccc1C3=O [idarubicine, idarubicin]
- effect on the NCI60 tumor cell lines in multidimensional scaling plot of growth inhibition profiles ([2]; NCI60 growth assay, FIG. 1): slightly different effect on the NCI60 tumor cell lines
